Data reported in publication PMC4592898, “Biochemical Characterisation of Phage Pseudomurein Endoisopeptidases PeiW and PeiP Using Synthetic Peptides” (Archaea, 2015).

Assays:
[1] = target: T1, PeiP (Methanobacterium phage psiM2, UniProt Q77WJ4); test: inhibition of EγApNA hydrolysis, […] nm, […] min preincubation; format: biochemical; conditions: read-out: % inhibition at 1 mM
T1 construct: N-terminal His-tag kept, pET151D, E. coli BL21-Rosetta 2; 338 residues and 39,537 Da with tag; monomer

[2] = target: T2, PeiW (Methanothermobacter phage psiM100, UniProt Q7LYX0); test: as above; format: biochemical; conditions: for inhibition at 1000 µM: read-out: % inhibition at 1 mM
T2 construct: N-terminal His-tag kept, pET151D, E. coli BL21-Rosetta 2; 317 residues and 37,219 Da with tag; monomer
T2 sequence (Q7LYX0 whole entry): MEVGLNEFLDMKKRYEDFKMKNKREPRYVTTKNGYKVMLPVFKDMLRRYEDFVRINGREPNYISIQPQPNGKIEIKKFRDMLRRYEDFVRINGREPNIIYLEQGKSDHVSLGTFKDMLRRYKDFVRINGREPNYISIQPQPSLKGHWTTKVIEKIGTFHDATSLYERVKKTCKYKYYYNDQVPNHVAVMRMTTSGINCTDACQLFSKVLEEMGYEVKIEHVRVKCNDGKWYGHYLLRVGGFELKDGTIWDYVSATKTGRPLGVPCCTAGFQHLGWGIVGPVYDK

T1 sequence (Q77WJ4 whole entry): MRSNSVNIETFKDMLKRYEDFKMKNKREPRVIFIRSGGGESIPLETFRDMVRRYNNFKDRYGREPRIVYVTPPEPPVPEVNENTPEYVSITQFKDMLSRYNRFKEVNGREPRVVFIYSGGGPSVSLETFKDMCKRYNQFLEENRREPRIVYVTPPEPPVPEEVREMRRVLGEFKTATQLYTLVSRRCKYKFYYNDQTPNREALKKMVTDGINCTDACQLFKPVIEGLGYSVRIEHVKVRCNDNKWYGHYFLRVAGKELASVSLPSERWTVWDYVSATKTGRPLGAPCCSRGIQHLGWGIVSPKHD

| inhibition at 1000 µM [1] [%] | inhibition at 1000 µM [2] [%] | Structure (SMILES) | % inhibition at 1 mM ([2]; 60 °C, pH 7.85, 10 mM CaCl2, 10 mM TCEP) [%] |
| --- | --- | --- | --- |
| 100 | 100 | NCCSSCCN [Cystamine] |  |
| 50 | 60 | CN(C)c1cccc2c(S(=O)(=O)NCCCCCN)cccc12 [Dansylcadaverine] |  |
| 30 | 10 | CC(C)C[C@H](NC(=O)[C@@H]1O[C@H]1C(=O)O)C(=O)NCCCCNC(=N)N [E64] |  |
|  |  | O=S(=O)(F)Cc1ccccc1 [PMSF] | 10 |
